From US11672792B2, “Topical formulations comprising montelukast and combinations with mussel adhesive proteins” (ENLITISA (SHANGHAI) PHARMACEUTICAL CO., LTD, priority 2017, dated 2023)
Where “and” joins values, the source holds several entries; their conditions need not be identical. Equal values may be shown once.

Tests used:
[1] = tested on: full thickness skin wounds; assay: Acute Wound Model (Example 6); type: in vivo, C57BL/6 mice; conditions: for Hyp content (μg/mg tissue weight), single animals / Hyp content, Mean (n = 4): wound tissue
Description: 6-8 weeks old male C57BL/6 mice were supplied by Changzhou Cvens Experimental Animal Co. Ltd. Prior to any experiments being conducted, mice were housed under standardized conditions (at a constant temperature or 22±2° C., with alternating 12 hour periods of light and darkness), and were fed on a standard mouse diet with water, for about a week. […] The hair on the back was shaved by a baby hair shaver and depilated with cream. […] EMS skin biopsy punch (Electron Microscopy Sciences, P.O. […] Full thickness skin was removed and the depth reached the fascia. The wounds left open without suture. […] The model group was given same amount of normal saline. Recombinant Human Epidermal Growth Factor (rhEGF, Shanghai Haohai Biological Technology Co. Ltd, Shanghai, China) was purchased and prepared according to the manufacturer's instructions. Lyophilized rhEGF powder (100000 IU/vial) was dissolved in 20 mL of normal saline to make a solution with a 5000 IU/mL concentration. […] MedChemExpress, MCE China, Shanghai, China) was obtained in a powder form and was dissolved in ultrapure water to obtain solutions with concentrations as described in Table 22 (L, M and H indicate low, medium and high montelukast doses, respectively) Wounds were wrapped up with transparent dresser after drug administration. Photographs were taken for each wound every other day from Day 0. Photos were scanned into a computer, and wound areas calculated using ImageJ image analysis software (National Institutes of Health, […]). The unhealed wound area was expressed as a percentage of the original wound area: At/A0×100%, where A0 and At refer to the initial area at Day 0 and the wound area at the date of measurement (time t), respectively. […] Half of the tissue was preserved in 10% neutral buffered formalin (Nanchang […] Experimental Equipment Co., Ltd., Nanchang, […] Provence, China), and analyzed by histological embedding in paraffin wax, sectioning and staining. HE and Masson stained paraffin sections were analyzed under an optical microscope. Skin regeneration, fibroblastic proliferation, collagen regeneration scores and inflammation scores were estimated. The rest of the samples were stored at -80° C. for further analysis. […] The supernatant was collected, and the extracted protein was used for ELISA analysis using standard ELISA test kits and an ELISA reader (SH-1000 Hitachi, Japan). […] (Beijing, China).

[2] = tested on: full thickness skin wounds in diabetic mice; assay: Diabetic Wound Model (Example 7); type: in vivo, db/db mice (C57BL/KsJ-db/db); conditions: Day 6, Mon 100 μg/each
Description: A similar experiment with essentially the same protocol to that described in Example 6 above was carried out on 8 to 12 week-old male db/db mice (C57BL/KsJ-db/db, with a body weight of 35-45 g/mouse; supplied by Changzhou Cvens Experimental Animal Co. Ltd.).
An EMS skin biopsy punch with a […] diameter was used to make wounds.
Different drugs were administrated topically at 20 μL/wound, once daily from Day 0 to Day 18. The model group was given same amount of normal saline.
Samples were taken on Day 6, Day 12 and Day 18 post-wound inflictions.
Histological specimens were analyzed and skin regeneration, fibroblast proliferation, collagen regeneration scores (Masson score) and inflammation scores were estimated as follows.
The HE and Masson stained slices were observed under an optical microscope and were scored (1, 2 or 3 points) according to the following criteria. […]
Fibroblast proliferation was scored as the following criteria:
Inflammation was scored as the following criteria:
Collagen deposition score criterion for the Masson stained sample were as follows. […] No clear blue staining was given 0 points; blue fiber appearing in a scattered pattern was scored as 1 points; if more blue fiber appeared, this was scored as 2 points, and a diffuse blue colour was given 3 points.

Question: What does the source list for `CC(C)(O)c1ccccc1CC[C@@H](SCC1(CC(=O)O)CC1)c1cccc(/C=C/c2ccc3ccc(Cl)cc3n2)c1` [Mon, Montelukast sodium]?
Answer: remaining wound area versus the initial wound ([1]; Day 2, Mon H 200 μg/wound): 76.11 ± 6.40%; remaining wound area versus the initial wound ([1]; Day 2, Mon L 50 μg/wound once daily topically): 78.41 ± 9.51%; remaining wound area versus the initial wound ([1]; Day 2, Mon M 100 μg/wound): 79.97 ± 11.79%; improvement rate (wound healing) ([1]; Day 4, Mon H 200 μg/wound): about 39%; remaining wound area versus the initial wound ([1]; Day 4, Mon H 200 μg/wound): 48.60 ± 6.49%; remaining wound area versus the initial wound ([1]; Day 4, Mon L 50 μg/wound): 57.59 ± 11.54%; remaining wound area versus the initial wound ([1]; Day 4, Mon M 100 μg/wound): 55.09 ± 8.83%; remaining wound area versus the initial wound ([1]; Day 6, Mon H 200 μg/wound): 29.13 ± 6.16%; remaining wound area versus the initial wound ([1]; Day 6, Mon L 50 μg/wound): 27.53 ± 3.76%; remaining wound area versus the initial wound ([1]; Day 6, Mon M 100 μg/wound): 28.51 ± 1.03%; remaining wound area versus the initial wound ([1]; Day 8, Mon H 200 μg/wound): 14.59 ± 3.04%; remaining wound area versus the initial wound ([1]; Day 8, Mon L 50 μg/wound): 14.08 ± 2.85%; remaining wound area versus the initial wound ([1]; Day 8, Mon M 100 μg/wound): 13.87 ± 3.51%; remaining wound area versus the initial wound ([1]; Day 12, Mon H 200 μg/wound): 2.48 ± 3.43%; remaining wound area versus the initial wound ([1]; Day 12, Mon L 50 μg/wound): 1.15 ± 2.29%; remaining wound area versus the initial wound ([1]; Day 12, Mon M 100 μg/wound): 2.15 ± 3.73%; Hyp content (μg/mg tissue weight), single animals ([1]; Mon H 200 μg/wound): 4.62 μg/mg tissue weight and 5.83 μg/mg tissue weight and 3.99 μg/mg tissue weight and 4.64 μg/mg tissue weight; Hyp content, Mean (n = 4) ([1]; Mon H 200 μg/wound): 4.77 μg/mg tissue weight; Hyp content (μg/mg tissue weight), single animals ([1]; Mon L 50 μg/wound): 4.65 μg/mg tissue weight and 4.41 μg/mg tissue weight and 6.71 μg/mg tissue weight and 6.05 μg/mg tissue weight; Hyp content, Mean (n = 4) ([1]; Mon L 50 μg/wound): 5.46 μg/mg tissue weight; Hyp content (μg/mg tissue weight), single animals ([1]; Mon M 100 μg/wound): 4.94 μg/mg tissue weight and 4.18 μg/mg tissue weight and 6.80 μg/mg tissue weight and 4.98 μg/mg tissue weight; Hyp content, Mean (n = 4) ([1]; Mon M 100 μg/wound): 5.23 μg/mg tissue weight; increase of VEGF production in the wounded tissue in comparison with model group [2]: about 74%; VEGF content, Mean ([2]; wound tissue, rhEGF 100 IU/each, once daily topically): 5.47 pg/g
